Data published in patent US12162858B2, “Quinoline derivatives as inhibitors of AXL/MER RTK and CSF1R” (QURIENT CO., LTD., priority 2018, dated 2024).
Read-outs that look alike come from different tables or passages of the source.

Target: T1, Axl (Homo sapiens, UniProt P30530)
T1 sequence (P30530 26-894): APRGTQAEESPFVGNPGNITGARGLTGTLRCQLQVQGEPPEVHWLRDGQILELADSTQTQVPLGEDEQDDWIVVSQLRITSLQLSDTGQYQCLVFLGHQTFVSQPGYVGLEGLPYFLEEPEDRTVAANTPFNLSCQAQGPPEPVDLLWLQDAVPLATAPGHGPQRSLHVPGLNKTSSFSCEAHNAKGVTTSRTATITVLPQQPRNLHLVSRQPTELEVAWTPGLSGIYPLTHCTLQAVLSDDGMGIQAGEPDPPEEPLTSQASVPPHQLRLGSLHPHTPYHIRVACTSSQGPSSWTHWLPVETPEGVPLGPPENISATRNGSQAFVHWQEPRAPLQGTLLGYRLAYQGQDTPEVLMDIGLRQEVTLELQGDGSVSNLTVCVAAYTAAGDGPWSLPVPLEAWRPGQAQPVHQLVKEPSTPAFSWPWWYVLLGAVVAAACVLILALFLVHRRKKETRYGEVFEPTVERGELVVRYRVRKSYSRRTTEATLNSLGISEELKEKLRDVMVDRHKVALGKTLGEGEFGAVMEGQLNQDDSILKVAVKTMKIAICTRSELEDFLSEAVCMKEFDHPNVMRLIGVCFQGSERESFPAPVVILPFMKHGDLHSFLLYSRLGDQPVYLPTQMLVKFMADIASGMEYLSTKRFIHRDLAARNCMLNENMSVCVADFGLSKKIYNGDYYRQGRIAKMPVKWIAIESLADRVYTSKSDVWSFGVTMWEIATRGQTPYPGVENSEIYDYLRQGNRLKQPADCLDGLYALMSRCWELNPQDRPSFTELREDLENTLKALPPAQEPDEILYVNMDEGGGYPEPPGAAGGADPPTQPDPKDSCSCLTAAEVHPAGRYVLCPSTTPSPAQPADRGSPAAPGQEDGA
Assay: Cellular Axl inhibition ELISA (p-Axl, Gas6-induced) using H1299 cells
Assay type: cell-based
Set-up: especially H1299 cell endogenously expresses Axl; endogenous in cells; host or cells: H1299
Experimental: Axl is expressed in several of malignant cancer cells; especially H1299 cell endogenously expresses Axl; and an increased phosphorylation of Axl (p-Axl) can be observed, when induced by the Axl ligand, Ga6.
The H1299 cells should be 40-80% confluent in the cell culture flask. Then cells are washed with DPBS and trypsinized. After centrifugation, the cell pellet is re-suspended with pre-warmed culture medium (RPMI1640, 10% FBS) and cells are separated by pipetting 6 times up and down with a 10 ml serological pipette. The cell suspension was diluted to a final concentration of 1.25×10^5 cells/ml. Then 80 μl/well cell suspension is added to the plate. Cell-plates are incubated at 37° C./5% CO2 overnight. Compounds were dissolved by DMSO to 10 mM, and kept in nitrogen cabinet. Prepare the compounds stock plate, the reference compounds concentration starts at 0.50 mM (5 μl+95 μl DMSO), and the tested compounds start at 1.5 mM (6 μl+34 μl DMSO); Then make a 3-fold dilution series (10 doses) compounds. Then dilute compounds by the medium in the mid plate (2 μl compounds+198 μl medium). Transfer 20 μl diluted compounds from mid plate to the cell coated plate. Cell-plates are incubated at 37° C./5% CO2 for 24 h. Add 25 μl of Human Gas6 (1000 ng/ml) to 96-well plate; the final concentration of Human Gas6 is 200 ng/ml. Incubate the plates at 37° C./5% CO2 for 1 h. Remove medium and wash cells once with 300 ul/well ice-cold 1×PBS. Then remove PBS and add 100 μl/well ice-cold 1× Cell Lysis Buffer to 96-well plate. The plate is shaken for 40 min at 4° C. Then plates can be stored at −20° C. After the micro-wells strips have reached room temperature, break off the required number of micro-wells. Place the micro-wells in the strip holder. Unused micro-wells must be resealed and stored at 4° C. immediately. Add 60 μl of cell lysate to the appropriate well. Seal with tape and press firmly onto top of micro-wells. Incubate the plate at 37° C. for 2 h. Gently remove the tape and wash wells 5 times with 1× Wash Buffer, 300 μl each time for each well. Add 100 μl of reconstituted Detection Antibody (green color) to each well. Seal with tape and incubate the plate at 37° C. for 1 h. Repeat wash procedure. Add 100 μl of reconstituted HRP Linked secondary antibody to each well. Seal with tape and incubate the plate at 37° C. for 30 min. Repeat wash procedure. Add 100 μl of TMB Substrate to each well. Seal with tape and incubate the plate at 37° C. for 15 min. Add 100 μl of STOP Solution to each well. Shake gently for a few seconds. Read absorbance at 450 nm within 30 min after adding STOP Solution. Calculations and Formulas: The following calculations and formulas are used for data analysis using XL Fit software: The curve fitting was made using the Sigmoidal Dose-Response Model (Fit model, 205).

[1] = read-out: Cellular Axl activity by H1299 Elisa (IC50)

SMILES | IC50 (Elisa, comparison of compounds of present invention (**) vs compounds of WO2016/166250 (*), read-out: Cellular activity Axl (H1299) (IC50)) | IC50 [1]
CCn1cc(OCC(F)(F)F)c(C(=O)Nc2ccc(Oc3ccnc4cc(OC)c(OC)cc34)cn2)n1 [Compound 4] | 3.4 nM | < 500 nM
CCCn1cc(OCC2COC2)c(C(=O)Nc2ccc(Oc3ccnc4cc(OC)c(OC)cc34)cn2)n1 [Compound 106] |  | < 500 nM
COc1cc2nccc(Oc3ccc(NC(=O)c4nn(CCO)cc4OCC(F)(F)F)cn3)c2cc1OC [Compound 129] |  | ≥ 1000 nM
COc1cc2nccc(Oc3ccc(NC(=O)c4nn(CCOC5CC5)cc4OCC(F)(F)F)cn3)c2cc1OC [Compound 130] |  | ≥ 1000 nM
